The values that follow are results of earlier work, collected in patent publication US6100258A, “Aromatic amine compounds that antagonize the pain enhancing effects of prostaglandins” (Zeneca Limited, priority 1995, dated 2000).

Structures are written as SMILES.

For `CC(=O)NNC(=O)N1Cc2ccccc2Oc2ccc(Cl)cc21` [SC-19220], the “block of the effect of PGE2” value in the data set with dog fundus and in the data set on guinea pig ileum was “blocks the effect of PGE2” in each case.
